Data set [1] concerns neuronal cells of the substantia nigra pars reticulate of the midbrain. In words: Fluorescent imaging of acutely isolated normal neuronal cells. In kind it is cell-based, mouse. As to conditions: 3 minutes, 8 minutes after start of washout. The method, then:
The whole amount of the 0.5 mg CLG vial was recovered using 0.73 mL in total of 10% DMSO and dissolved (100 μM) by addition to 14.79 ml of a HEPES solution for image acquisition according to the method described in Non Patent Literature 2. […]
150 mM NaCl, 5 mM KCl, 1 mM MgCl2, 2 mM CaCl2, and 10 mM HEPES (the pH of the solution was adjusted to 7.4 with a 1 M tris(2-amino-2-hydroxymethyl-1,3-propanediol) solution). The concentration of glucose was set to 10 mM. 0.1 mM carbenoxolone (Sigma-Aldrich, #C4790) was added thereto for the purpose of inhibiting the entrance and exit of fluorescently labeled glucose by way of gap junction/hemichannel. This HEPES solution for image acquisition was used for preparing the CLG solution and the mixed solution with the additional fluorescent sugar derivative.
Neuronal cells […] to the method described in the previous reports of the inventors (WO2010/16587 (Patent Literature 2)) and (WO2012/133688 (Patent Literature 4)) and attached to each glass cover slip coated with poly-L-lysine. Then, the glass cover slip was transferred into the HEPES solution for image acquisition in a perfusion chamber loaded on a stage of a fluorescence microscope, followed by observation.
A silicon plate of 1 mm thickness bored to have a streamline-shaped hole (10 mm wide x 35 mm long) was placed via cover glass onto an aluminum heating control platform (Warner Instruments) having a round hole (diameter: 18 mm) for an objective lens at the bottom, and allowed to be in close contact with the cover glass.
The HEPES solution for image acquisition was warmed in advance in an aluminum syringe heater and supplied to the perfusion chamber through hydrostatic pressure. The perfusion rate was adjusted to 1.3±0.2 mL/min using a flow rate adjuster. Immediately before being introduced to the perfusion chamber, the solution was rewarmed via an inline heater so that the actually measured temperature of the perfusate in an observation region in the chamber was adjusted to 32.5±1° C. The CLG/2-TRLG mixed solution was able to be supplied in the same way as above and was switched with the HEPES solution for image acquisition using an electromagnetic valve capable of controlling the opening and closing of the channel. The solution was removed using a vacuum pump capable of controlling suction pressure.
The fluorescence microscope used was NIKON ECLIPS-Ti, and images were acquired with a CCD camera Retiga 2000R.
CLG and 2-TRLG were each detected using the following filter cassette.
Excitation 360/40 nm, Dichroic mirror 400 nm, Emission 460/50 nm.
Excitation 567/15 nm, Dichroic mirror 593 nm, Emission 593 nm Long pass.
The objective lens used in this method was ×20 dry lens (Nikon Plan S Fluor). The images were acquired at 1600×1200 pixels. […]

A short description of data set [2]: Fluorescence spectrum (excitation and fluorescence maxima). It is filed as physicochemical. From the text: The fluorescence spectra of CDG synthesized in (1) and QDG synthesized in (2) were compared with the fluorescence spectrum of 2-NBDLG (manufactured by Peptide Institute, Inc.).
The numeric values described above the graph denote the fluorescence maximum of CDG and QDG, respectively. It is evident that the fluorescence maximum was largely shifted to shorter wavelength as compared with the fluorescence maximum of 2-NBDLG present around 550 nm.

Data on 2 compounds can be found in patent publication US10509041B2, “Glucose derivative, and cell imaging method and imaging agent using said derivative” (HIROSAKI UNIVERSITY, priority 2014, dated 2019).

For `O=c1ccc2ccc(NC3C(O)OC(CO)[C@@H](O)[C@@H]3O)cc2o1` (stereo partly drawn) [CDG, 2-deoxy-2-(2-oxo-2H-chromen-7-yl)amino-D-glucose], the “uptake into normal neuronal cells” value in data set [1] (100 μM CDG+20 μM 2-TRLG mixed solution, 14-day-old mouse) was “taken into the normal neuronal cells”. In addition, in data set [2], the “maximum excitation wavelength (Ex max)” value is reported as 366.5 nm and the “maximum fluorescence wavelength (Em max)” value stood at 454.5 nm.
`O=c1ccc2ccc(NC3C(O)OC(CO)[C@H](O)[C@H]3O)cc2o1` (stereo partly drawn) [CLG, 2-deoxy-2-(2-oxo-2H-chromen-7-yl)amino-L-glucose]: in data set [1] (100 μM CLG+20 μM 2-TRLG mixed solution, 21-day-old mouse), the “uptake into normal neuronal cells” value was “not observed”. In data set [2], the “maximum excitation wavelength (Ex max)” value was found to be 366.5 nm and the “maximum fluorescence wavelength (Em max)” value came to 454.5 nm.
